In publication PMC7201284, “A complete compendium of crystal structures for the human SEPT3 subgroup reveals functional plasticity at a specific septin interface” (IUCrJ, 2020):

Legend:
Assay in all cases: X-ray crystallography, co-crystallization
SEPT12G = biological target: T1, SEPT12G (Homo sapiens, UniProt Q8IYM1); conditions: Mg2+, nucleotide-binding site
T1 construct: gene SEPTIN12; G domain, residues 47-320, pET-28a(+) His-tag, E. coli Rosetta (DE3); monomer about 32 kDa
T1 sequence (Q8IYM1 47-320): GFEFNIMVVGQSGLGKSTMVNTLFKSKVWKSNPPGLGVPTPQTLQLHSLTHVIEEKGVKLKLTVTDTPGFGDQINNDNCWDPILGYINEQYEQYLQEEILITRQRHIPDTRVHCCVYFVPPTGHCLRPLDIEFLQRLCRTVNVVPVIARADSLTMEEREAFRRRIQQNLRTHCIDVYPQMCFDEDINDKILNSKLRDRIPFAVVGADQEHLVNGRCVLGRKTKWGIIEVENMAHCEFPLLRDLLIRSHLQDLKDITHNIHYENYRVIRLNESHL

SEPT3α0G = biological target: T2, SEPT3α0G (Homo sapiens, UniProt Q9UH03); conditions: 1.83 Å; Mg2+ in active site; nucleotide-binding site at G interface
T2 construct: gene SEPTIN3; G domain plus polybasic helix α0, residues 43-330; expressed and purified as in Macedo et al. 2013; monomer in solution; homotypic G-interface dimers in crystal
T2 sequence (Q9UH03 43-330): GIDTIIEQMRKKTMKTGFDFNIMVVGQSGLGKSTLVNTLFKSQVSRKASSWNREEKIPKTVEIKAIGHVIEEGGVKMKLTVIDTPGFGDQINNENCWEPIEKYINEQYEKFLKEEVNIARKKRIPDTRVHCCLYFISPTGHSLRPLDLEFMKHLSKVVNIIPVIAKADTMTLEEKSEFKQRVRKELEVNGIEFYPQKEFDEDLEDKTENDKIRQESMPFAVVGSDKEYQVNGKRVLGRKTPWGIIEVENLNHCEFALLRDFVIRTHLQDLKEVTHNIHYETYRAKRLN

SEPT9GC = biological target: T3, SEPT9GC (Homo sapiens, UniProt Q9UHD8); conditions: about 2.0 Å; Mg2+; nucleotide-binding site at G interface
T3 construct: gene SEPTIN9; G domain plus C-terminal region, residues 279-568, pET-28a(+) His-tag, E. coli Rosetta (DE3); monomer about 38 kDa; purified nucleotide-free
T3 sequence (Q9UHD8 279-568): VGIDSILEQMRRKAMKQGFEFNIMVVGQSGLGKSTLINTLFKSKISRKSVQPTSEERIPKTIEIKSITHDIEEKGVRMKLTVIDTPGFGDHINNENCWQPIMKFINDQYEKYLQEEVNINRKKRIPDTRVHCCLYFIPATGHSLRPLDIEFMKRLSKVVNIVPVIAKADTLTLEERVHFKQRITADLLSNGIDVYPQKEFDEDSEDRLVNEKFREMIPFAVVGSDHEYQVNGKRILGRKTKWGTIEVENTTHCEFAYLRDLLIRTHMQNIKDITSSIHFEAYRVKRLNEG

SEPT3G = biological target: T4, SEPT3G (Homo sapiens, UniProt Q9UH03); conditions: 1.86 Å; Mg2+; nucleotide-binding site; b26 labels 4z51 as GTPγS but methods, Table 2 and results say GMPPNP
T4 construct: gene SEPTIN3; G domain without helix α0, residues 59-330; expressed and purified as in Macedo et al. 2013; monomer in solution; homotypic G-interface dimers in crystal
T4 sequence (Q9UH03 59-330): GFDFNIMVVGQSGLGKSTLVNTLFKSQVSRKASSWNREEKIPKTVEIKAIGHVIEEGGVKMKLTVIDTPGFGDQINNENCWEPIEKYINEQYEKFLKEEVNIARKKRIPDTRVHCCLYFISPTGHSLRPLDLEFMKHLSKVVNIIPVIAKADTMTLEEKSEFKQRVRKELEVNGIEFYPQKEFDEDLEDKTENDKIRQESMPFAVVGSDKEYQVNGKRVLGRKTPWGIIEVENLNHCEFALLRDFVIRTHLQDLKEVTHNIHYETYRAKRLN

Row | Compound | X-ray crystallography, co-crystallization (SEPT12G; 2.19 Å, small quantity of GDP also co-purified) | X-ray crystallography, co-crystallization (SEPT3α0G) | X-ray crystallography, co-crystallization (SEPT9GC) | X-ray crystallography, co-crystallization (SEPT12G; 1.86 Å (P1, 6mq9) and 2.12 Å (C2221, 6mqb)) | X-ray crystallography, co-crystallization (SEPT3G)
1 | Nc1nc2c(ncn2[C@@H]2O[C@H](COP(=O)(O)OP(=O)(O)O)[C@@H](O)[C@H]2O)c(=O)[nH]1 [GDP] | In SEPT12G–GDP (PDB entry 6mqk) the metal ion is canonically coordinated by Thr89, Ser63 | structures of the G domain of SEPT3 complexed with either GDP or the GTP mimetic GMPPNP | The structure of SEPT9GC–GDP (PDB entry 5cyo) has a G-interface dimer in the asymmetric unit |  | 
2 | Nc1nc2c(ncn2[C@@H]2O[C@H](COP(=O)(O)OP(=O)(O)NP(=O)(O)O)[C@@H](O)[C@H]2O)c(=O)[nH]1 [GMPPNP] |  |  |  | Two structures were obtained in the presence of GMPPNP | The SEPT3G–GMPPNP complex (PDB entry 4z51) has only one monomer per asymmetric unit
